Assay results taken from ChEMBL document CHEMBL1134497, “Soluble 2-substituted aminopyrido[2,3-d]pyrimidin-7-yl ureas. Structure-activity relationships against selected tyrosine kinases and exploration of in vitro and in vivo anticancer activity” (J Med Chem, 2001).

Key:
[1] = molecular target: Fibroblast growth factor receptor 1 (Homo sapiens, UniProt P11362)
Description: Ability to prevent phosphorylation of human fibroblast growth factor receptor 1

[2] = molecular target: Proto-oncogene tyrosine-protein kinase Src (Gallus gallus, UniProt P00523); test: Ability to prevent phosphorylation of avian c-Src TK
[3] = molecular target: Platelet-derived growth factor receptor beta (Mus musculus, UniProt P05622); test: Ability to prevent phosphorylation of isolated mouse PDGF receptor beta
Sequence of Platelet-derived growth factor receptor beta (P05622 whole entry): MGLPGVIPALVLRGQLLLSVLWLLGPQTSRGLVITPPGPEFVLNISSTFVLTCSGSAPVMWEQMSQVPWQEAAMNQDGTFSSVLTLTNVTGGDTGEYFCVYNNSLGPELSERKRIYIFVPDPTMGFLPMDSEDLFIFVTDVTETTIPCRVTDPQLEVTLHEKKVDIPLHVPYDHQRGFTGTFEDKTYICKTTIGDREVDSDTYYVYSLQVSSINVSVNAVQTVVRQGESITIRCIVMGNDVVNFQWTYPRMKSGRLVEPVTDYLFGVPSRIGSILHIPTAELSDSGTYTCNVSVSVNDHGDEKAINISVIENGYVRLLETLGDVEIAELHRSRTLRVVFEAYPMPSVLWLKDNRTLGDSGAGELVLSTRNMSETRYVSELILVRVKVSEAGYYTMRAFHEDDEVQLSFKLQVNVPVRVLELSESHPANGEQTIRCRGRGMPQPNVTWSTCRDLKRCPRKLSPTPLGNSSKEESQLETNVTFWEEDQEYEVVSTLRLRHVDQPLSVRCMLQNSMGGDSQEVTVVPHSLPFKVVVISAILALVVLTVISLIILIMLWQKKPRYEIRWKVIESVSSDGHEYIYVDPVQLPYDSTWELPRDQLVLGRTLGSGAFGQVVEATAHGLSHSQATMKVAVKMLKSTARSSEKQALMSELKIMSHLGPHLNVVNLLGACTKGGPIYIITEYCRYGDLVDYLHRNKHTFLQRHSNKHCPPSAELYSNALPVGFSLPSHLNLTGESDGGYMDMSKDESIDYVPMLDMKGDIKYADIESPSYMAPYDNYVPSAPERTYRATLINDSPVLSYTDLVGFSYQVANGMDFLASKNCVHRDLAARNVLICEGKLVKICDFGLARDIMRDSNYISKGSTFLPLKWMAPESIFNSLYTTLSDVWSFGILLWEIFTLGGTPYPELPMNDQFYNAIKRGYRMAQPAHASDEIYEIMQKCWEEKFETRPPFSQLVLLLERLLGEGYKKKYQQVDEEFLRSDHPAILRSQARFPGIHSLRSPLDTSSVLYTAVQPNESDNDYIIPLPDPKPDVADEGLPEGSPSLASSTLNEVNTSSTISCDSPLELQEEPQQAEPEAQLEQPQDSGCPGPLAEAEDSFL

[4] = molecular target: Cyclin-dependent kinase 4 (Homo sapiens, UniProt P11802); test: Inhibition of cyclin dependent kinase 4 (CDK4)
Sequence of Cyclin-dependent kinase 4 (P11802 whole entry): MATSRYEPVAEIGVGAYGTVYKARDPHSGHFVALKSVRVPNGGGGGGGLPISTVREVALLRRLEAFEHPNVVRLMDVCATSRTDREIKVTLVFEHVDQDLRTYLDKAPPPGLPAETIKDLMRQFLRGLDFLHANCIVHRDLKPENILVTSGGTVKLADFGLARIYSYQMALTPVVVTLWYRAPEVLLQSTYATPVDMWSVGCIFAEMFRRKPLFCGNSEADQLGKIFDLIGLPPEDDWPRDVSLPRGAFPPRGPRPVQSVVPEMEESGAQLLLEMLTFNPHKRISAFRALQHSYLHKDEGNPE

[5] = tested on: SW-620; test: Inhibition of human colon carcinoma SW-620 cell proliferation; format: functional, cell-based
[6] = molecular target: Protein kinase C (PKC); test: Inhibition of protein kinase C; format: protein assay
[7] = tested on: C6; test: Inhibition of C-6 rat glioma cell proliferation; format: functional, cell-based
[8] = tested on: NIH3T3; test: Inhibition of NIH3T3/PDGF Mouse transfected fibroblasts cell line; format: functional, cell-based
[9] = molecular target: Platelet-derived growth factor receptor (PDGFr) (Rattus norvegicus, UniProt P20786+Q05030); test: Inhibition of PDGF receptor autophosphorylation in rat aortic vascular smooth muscle cells
[10] = tested on: HCT-8; test: Inhibition of human colon carcinoma HCT-8 cell proliferation; format: functional, cell-based
[11] = tested on: HT-29; test: Inhibition of human colon carcinoma HT-29 cell proliferation; format: functional, cell-based
[12] = Inhibition of MEK1/ERK (MAP kinase kinase) in cascade assay
[13] = Inhibition of MEK1/ERK (MAP Kinase kinase) in cascade assay

Sequence of Fibroblast growth factor receptor 1 (P11362 whole entry): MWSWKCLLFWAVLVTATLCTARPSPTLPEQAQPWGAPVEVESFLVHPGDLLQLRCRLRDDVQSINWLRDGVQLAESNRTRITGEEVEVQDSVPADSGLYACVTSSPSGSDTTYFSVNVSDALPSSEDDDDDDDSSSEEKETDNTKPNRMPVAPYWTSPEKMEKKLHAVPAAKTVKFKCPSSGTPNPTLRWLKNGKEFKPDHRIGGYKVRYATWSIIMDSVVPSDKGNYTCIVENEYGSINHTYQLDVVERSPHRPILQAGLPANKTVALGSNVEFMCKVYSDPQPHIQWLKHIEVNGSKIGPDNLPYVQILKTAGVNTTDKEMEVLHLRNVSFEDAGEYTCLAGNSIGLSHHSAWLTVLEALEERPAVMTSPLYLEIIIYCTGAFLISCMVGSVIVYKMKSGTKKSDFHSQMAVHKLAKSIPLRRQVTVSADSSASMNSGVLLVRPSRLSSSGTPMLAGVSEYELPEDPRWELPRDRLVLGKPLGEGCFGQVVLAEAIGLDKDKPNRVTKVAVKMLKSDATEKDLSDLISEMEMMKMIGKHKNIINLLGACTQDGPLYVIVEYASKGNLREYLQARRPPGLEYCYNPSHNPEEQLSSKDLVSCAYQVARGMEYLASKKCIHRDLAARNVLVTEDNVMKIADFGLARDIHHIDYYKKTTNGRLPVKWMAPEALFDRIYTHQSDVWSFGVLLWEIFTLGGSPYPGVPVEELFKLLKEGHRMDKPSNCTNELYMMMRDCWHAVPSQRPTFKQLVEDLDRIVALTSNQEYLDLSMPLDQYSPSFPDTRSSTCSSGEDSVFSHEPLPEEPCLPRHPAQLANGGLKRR

Row | IC50 [1] [µM] | IC50 [2] [µM] | IC50 [3] [µM] | Compound | further results
1 | 0.14 | 0.061 | 2.4 | CN1CCN(CCCNc2ncc3cc(-c4c(Cl)cccc4Cl)c(NC(N)=O)nc3n2)CC1 | –
2 | 0.34 | 0.098 | – | CCN(CC)CCCNc1ncc2cc(-c3c(C)cccc3C)c(NC(=O)NC(C)(C)C)nc2n1 | –
3 | 0.035 | 0.022 | 0.76 | C=CCNC(=O)Nc1nc2nc(NCCCN3CCN(C)CC3)ncc2cc1-c1c(Cl)cccc1Cl | –
4 | 5.5 | > 50 | > 50 | CCN(CC)C(=O)Nc1nc2nc(NCCCN3CCN(C)CC3)ncc2cc1-c1c(Cl)cccc1Cl | –
5 | 0.11 | 0.036 | 0.84 | Cc1ccc(NC(=O)Nc2nc3nc(NCCCN4CCN(C)CC4)ncc3cc2-c2c(Cl)cccc2Cl)cc1 | –
6 | > 50 | > 50 | > 50 | Cc1cc(C)c(C)c(-c2cc3cnc(N)nc3nc2N)c1C | –
7 | – | 0.12 | – | CN(C)CCCNc1ncc2cc(-c3c(Cl)cccc3Cl)c(NC(=O)NC(C)(C)C)nc2n1 | –
8 | – | 0.19 | 5.5 | CN1CCN(CCCNc2ncc3cc(-c4c(Cl)cccc4Cl)c(NC(=O)Nc4ccc(C(F)(F)F)cc4)nc3n2)CC1 | –
9 | 0.45 | 0.18 | 9.6 | CN1CCN(CCCNc2ncc3cc(-c4c(Cl)cccc4Cl)c(N)nc3n2)CC1 | –
10 | – | 0.033 | – | COc1ccc(NC(=O)Nc2nc3nc(NCCCN4CCN(C)CC4)ncc3cc2-c2c(Cl)cccc2Cl)cc1 | –
11 | – | 0.073 | – | CCN(CC)CCCNc1ncc2cc(-c3c(Cl)cccc3Cl)c(NC(=O)NC(C)(C)C)nc2n1 | –
12 | 2.5 | 0.85 | – | CC(C)NC(=Nc1nc2nc(NCCCN3CCN(C)CC3)ncc2cc1-c1c(Cl)cccc1Cl)NC(C)C | –
13 | 0.6 | 0.092 | 5 | CN1CCN(CCCNc2ncc3cc(-c4c(Cl)cccc4Cl)c(NC(=O)Nc4ccc(Cl)c(Cl)c4)nc3n2)CC1 | –
14 | 0.048 | – | – | COc1cc(OC)cc(-c2cc3cnc(N)nc3nc2NC(=O)NC(C)(C)C)c1 | –
15 | – | 0.21 | 1.4 | CC(C)(C)NC(=O)Nc1nc2nc(N)ncc2cc1-c1c(Br)cccc1Br | –
16 | 2.8 | 0.86 | 37 | CN1CCN(CCCNc2ncc3cc(-c4c(Cl)cccc4Cl)c(N=C(N)Nc4ccccc4)nc3n2)CC1 | –
17 | – | 0.75 | – | CCN(CC)CCCNc1ncc2cc(-c3c(Cl)cccc3Cl)c(N)nc2n1 | –
18 | 3.7 | 2.7 | > 50 | CCCC(=O)Nc1nc2nc(NCCCN3CCN(C)CC3)ncc2cc1-c1c(Cl)cccc1Cl | –
19 | 0.13 | 0.094 | 1.3 | CCNC(=O)Nc1nc2nc(NCCCN(CC)CC)ncc2cc1-c1c(Cl)cccc1Cl | –
20 | – | – | – | CCNC(=O)Nc1nc2nc(NCCCCN(CC)CC)ncc2cc1-c1c(Cl)cccc1Cl | IC50 [4]: > 40 µM; IC50 [5]: 2.76 µM; IC50 [6]: > 50 µM; IC50 [7]: 8.8 µM; IC50 [8]: 1.01 µM; IC50 [9]: 0.24 µM; IC50 [10]: 4.02 µM; IC50 [11]: 1.17 µM; IC50 [12]: > 5 µM

Row | IC50 [1] [µM] | IC50 [2] [µM] | IC50 [3] [µM] | Compound | further results
21 | 0.067 | 0.016 | 0.66 | COc1ccccc1NC(=O)Nc1nc2nc(NCCCN3CCN(C)CC3)ncc2cc1-c1c(Cl)cccc1Cl | –
22 | 0.42 | 0.12 | – | CCCCCCCCNC(=O)Nc1nc2nc(NCCCN3CCN(C)CC3)ncc2cc1-c1c(Cl)cccc1Cl | –
23 | 27 | 19 | > 50 | CCN(CC)CCCNc1ncc2cc(-c3c(Cl)cccc3Cl)c(NC(=O)CC(C)(C)C)nc2n1 | –
24 | 0.075 | 0.02 | 2.4 | CN(C)CCNC(=O)Nc1nc2nc(NCCCN3CCN(C)CC3)ncc2cc1-c1c(Cl)cccc1Cl | –
25 | – | 0.016 | 0.73 | CC1CCCCN1CCCNc1ncc2cc(-c3c(Cl)cccc3Cl)c(NC(=O)NC(C)(C)C)nc2n1 (stereo not given) | –
26 | – | 0.01 | 0.28 | CN1CCN(CCCCNc2ncc3cc(-c4c(Cl)cccc4Cl)c(NC(=O)NC(C)(C)C)nc3n2)CC1 | –
27 | – | 0.1 | – | CC(C)(C)NC(=O)Nc1nc2nc(NCCCN3CCOCC3)ncc2cc1-c1c(Cl)cccc1Cl | –
28 | 0.3 | 0.13 | – | CN1CCN(CCCNc2ncc3cc(-c4c(Cl)cccc4Cl)c(NC(=O)Nc4cccc5ccccc45)nc3n2)CC1 | –
29 | 0.11 | 0.033 | 1.5 | CN1CCN(CCCNc2ncc3cc(-c4c(Cl)cccc4Cl)c(NC(=O)Nc4ccc(Br)cc4)nc3n2)CC1 | –
30 | – | 0.0074 | – | CCN(CC)CCCCNc1ncc2cc(-c3c(Cl)cccc3Cl)c(NC(=O)NC(C)(C)C)nc2n1 | IC50 [4]: > 40 µM; IC50 [5]: > 25 µM; IC50 [6]: 23 µM; IC50 [13]: 2.8 µM; IC50 [7]: 5.8 µM; IC50 [10]: 16.3 µM; IC50 [11]: 0.9 µM
31 | 0.13 | 0.022 | 1.1 | CCN(CC)CCCCNc1ncc2cc(-c3c(Cl)cccc3Cl)c(NC(=S)NCCCN3CCOCC3)nc2n1 | –
32 | – | > 50 | > 50 | Cc1cc(C)c(C)c(-c2cc3cnc(N)nc3nc2NC(=O)NC(C)(C)C)c1C | –
33 | 2 | 1.1 | 16 | CN(C)CCCN(C)c1ncc2cc(-c3c(Cl)cccc3Cl)c(NC(=O)NC(C)(C)C)nc2n1 | –
34 | – | > 50 | – | COc1cc(OC)cc(-c2cc3cnc(N)nc3nc2N)c1 | –
35 | 8.3 | 0.76 | > 50 | CCN(CC)CCCNc1ncc2cc(-c3c(Br)cccc3Br)c(N)nc2n1 | –
36 | – | 0.078 | – | CCN(CC)CCCNc1ncc2cc(-c3c(Cl)cccc3Cl)c(NC(=O)NC(C)C)nc2n1 | –
37 | 10 | 4 | > 50 | CCN(CC)CCCNc1ncc2cc(-c3c(Cl)cccc3Cl)c(/N=C\N(C)C)nc2n1 | –
38 | 0.034 | 0.019 | 0.55 | CC(C)NC(=O)Nc1nc2nc(NCCCN3CCN(C)CC3)ncc2cc1-c1c(Cl)cccc1Cl | –
39 | 18 | 0.45 | 25 | CCN(CC)CCCNc1ncc2cc(-c3c(C)cccc3C)c(N)nc2n1 | –
40 | – | – | – | CN1CCN(CCCNc2ncc3cc(-c4c(Cl)cccc4Cl)c(NC(=O)NC(C)(C)C)nc3n2)CC1 | IC50 [4]: > 40 µM; IC50 [5]: > 25 µM; IC50 [6]: 22 µM; IC50 [13]: 7 µM; IC50 [7]: 4 µM; IC50 [8]: 1.08 µM; IC50 [10]: > 15.2 µM; IC50 [11]: 11.1 µM

Row | IC50 [1] [µM] | IC50 [2] [µM] | IC50 [3] [µM] | Compound | further results
41 | – | 0.22 | 1.2 | CC(C)(C)NC(=O)Nc1nc2nc(N)ncc2cc1-c1c(Cl)cccc1Cl | –
42 | 0.067 | 0.15 | 4.2 | CN1CCN(CCCNc2ncc3cc(-c4c(Cl)cccc4Cl)c(NC(=O)NCCNC(=O)OC(C)(C)C)nc3n2)CC1 | –
43 | 1.8 | 4.1 | 9 | CCN(CC)CCNc1ncc2cc(-c3c(Cl)cccc3Cl)c(NC(=O)NC(C)(C)C)nc2n1 | –
44 | – | 1.6 | – | Nc1ncc2cc(-c3c(Br)cccc3Br)c(N)nc2n1 | –
45 | 0.12 | 0.12 | 2.8 | CN1CCN(CCCNc2ncc3cc(-c4c(Cl)cccc4Cl)c(NC(=O)NC45C[C@H]6C[C@@H](C4)C[C@@H](C5)C6)nc3n2)CC1 | –
46 | 1.3 | 2.6 | 12 | CCNC(=O)Nc1nc2nc(NCCN(CC)CC)ncc2cc1-c1c(Cl)cccc1Cl | –
47 | 0.19 | 0.097 | 1.1 | CCN(CC)CCCNc1ncc2cc(-c3c(Br)cccc3Br)c(NC(=O)NC(C)(C)C)nc2n1 | –
48 | 0.1 | 0.22 | – | CN1CCN(CCCNc2ncc3cc(-c4c(Cl)cccc4Cl)c(/N=C(/S)NC(C)(C)C)nc3n2)CC1 | –
49 | – | 0.21 | 16 | Nc1ncc2cc(-c3c(Cl)cccc3Cl)c(N)nc2n1 | –
50 | 13 | 0.43 | 29 | Cc1cccc(C)c1-c1cc2cnc(N)nc2nc1N | –
51 | 0.12 | 0.04 | 1.8 | CN1CCN(CCCNc2ncc3cc(-c4c(Cl)cccc4Cl)c(NC(=O)Nc4ccc(Cl)cc4)nc3n2)CC1 | –
52 | 0.21 | 3.5 | 3.2 | CN(C)CC(C)(C)CNc1ncc2cc(-c3c(Cl)cccc3Cl)c(NC(=O)NC(C)(C)C)nc2n1 | –
53 | 6.8 | 3.3 | > 50 | CN1CCN(CCCNc2ncc3cc(-c4c(Cl)cccc4Cl)c(NC(=O)Cc4ccccc4)nc3n2)CC1 | –
54 | 2.7 | 1.4 | > 50 | CC/N=C(\N)Nc1nc2nc(NCCCN(CC)CC)ncc2cc1-c1c(Cl)cccc1Cl | –
55 | 8 | 8.4 | > 50 | CN1CCN(CCCNc2ncc3cc(-c4c(Cl)cccc4Cl)c(NC(=O)CC(C)(C)C)nc3n2)CC1 | –
56 | 0.26 | 0.13 | 5 | CCNC(=S)Nc1nc2nc(NCCCN(CC)CC)ncc2cc1-c1c(Cl)cccc1Cl | –
57 | – | 0.029 | 0.91 | COc1cccc(NC(=O)Nc2nc3nc(NCCCN4CCN(C)CC4)ncc3cc2-c2c(Cl)cccc2Cl)c1 | –
58 | – | 0.024 | – | CCNC(=O)Nc1nc2nc(NCCCN3CCN(C)CC3)ncc2cc1-c1c(Cl)cccc1Cl | IC50 [5]: 2.5 µM; IC50 [7]: 6.7 µM; IC50 [10]: 9.3 µM; IC50 [11]: 0.9 µM

Row | Compound | IC50 [1] [µM] | IC50 [2] [µM] | IC50 [3] [µM] | further results
59 | CCN(CC)CCCCNc1ncc2cc(-c3c(Cl)cccc3Cl)c(NC(=O)NC3CCCCC3)nc2n1 | 0.043 | 0.012 | 0.33 | –
60 | CN1CCN(CCCNc2ncc3cc(-c4c(Cl)cccc4Cl)c(NS(=O)(=O)c4ccccc4)nc3n2)CC1 | 0.068 | 0.022 | 6.9 | –
61 | CN1CCN(CCCNc2ncc3cc(-c4c(Cl)cccc4Cl)c(NC(=S)Nc4ccccc4)nc3n2)CC1 | 0.32 | 0.022 | 2.2 | –
